Source: patent EP4731189B1, “SOLID ORAL FORMULATION OF PUDAFENSINE” (Initiator Pharma A/S, priority 2023, dated 2024)
≈ marks a conversion by molar mass, not a printed value.

What was measured:
[1] = Solubility of IP2015 in aqueous and non-aqueous vehicles (visual, HPLC content); type: physicochemical
Procedure: Solubility of IP2015 was determined in both aqueous and non-aqueous vehicles. In non-aqueous liquids, the solubility was visually confirmed in progressive dilutions. The solubility of IP2015 in pH specific aqueous solutions was evaluated, the solubility was visually confirmed, and the content was evaluated by HPLC. Table 2. Solubility of IP2015 in different media.

[2] = system: male subjects with erectile dysfunction (ED); assay: Phase IIb study in erectile dysfunction, IIEF-15 questionnaire efficacy; type: in vivo, humans
From the text: (§1) The study investigated the effects of repeat single oral doses of IP2015 on male subjects with erectile dysfunction (ED) on ability to develop and maintain an erection, as well as safety and tolerability of single oral doses of IP2015, effects on penile rigidity and tumescence during visual stimulation, effects on sperm count and motility, and any possible relationship between plasma levels of IP2015, its efficacy and safety.
(§2) 130 subjects were divided into 3 groups upon which the study was conducted in parallel. Each subject was dosed on four occasions with either 5 mg IP2015, 10 mg IP2015 or matched placebo. In each group, subjects were randomized evenly to each of the three study treatments and received the same treatment at each visit.
The study lasted approximately 8 weeks and consisted of the following: • A screening visit (up to 21 days prior to the baseline visit) • A baseline visit (Day -7) • Outpatient visits on Week 1 (Day 1), Week 2, Week 3 and Week 4 • A follow-up visit a minimum of 7 to 10 days after their final dose.
(§3) On Day -7, and at Week 1 (Day 1), Week 2, Week 3, Week 4 and Follow-up visits, all groups were asked to complete the IIEF-15 questionnaire. Group 2 was asked to complete a Visual Stimulation Assessment using a RigiScan Plus Monitor on Day -7, Week 1 (Day 1) and Week 4. Group 2 was also required to provide blood samples for pharmacokinetic assessment on Week 1 (Day 1) and Week 4. Group 3 was required to provide semen samples on Day -7 and Week 4.
The patients were otherwise healthy male subjects with ED as determined from an IIEF-5 score of ≤16, with a body mass index of 18 to 35 kg/m^2 (inclusive), of any ethnic origin. Subjects were aged between 18 to 59 years, inclusive.
(§4) There were three potential study treatments of 5 mg IP2015, 10 mg IP2015 or matched placebo. In each group, subjects were randomized evenly to each of the three study treatments and received the same treatment on each visit. IP2015 or matched placebo was administered once in the morning of Week 1 (Day 1), Week 2, Week 3, and Week 4 as an oral solution in the fasted state. The dose was taken with 240 mL of water at room temperature. Subjects had fasted 2 hours prior to dosing until 4 hours post-dose. Water was allowed ad libitum except for 1 hour before and 1 hour after dosing.
(§5) Efficacy was assessed through the International Index of Erectile Function (IIEF)-15 questionnaire. The change from baseline in responses to questions of the IIEF-15 questionnaire, including questions regarding erectile function, orgasmic function, sexual desire, intercourse satisfaction and overall satisfaction domain scores, was determined at different time points of the study. RigiScan assessments during the stimulus assessment, and sperm count and motility by semen sample collection was used for efficacy evaluation. Safety was assessed through AE reporting, 12-lead ECG, vital signs, physical examinations, and clinical laboratory evaluations. Pharmacokinetics was assessed by blood sampling.
The results are means±SE. The statistical differences were performed with Mixed Model Repeated Measures (MMRM).

[3] = system: male subjects with erectile dysfunction (ED); assay: Phase IIb study in erectile dysfunction, treatment-emergent adverse events and semen analysis; type: in vivo, humans
From the text: as §1, §2, §3, §4, §5

[4] = pH 5.8 Potassium Phosphate buffer
[5] = pH 6.8 Potassium Phosphate buffer
[6] = pH 7.5 Potassium Phosphate buffer
[7] = 5 mg IP2015 oral solution, overall score, tendency to difference

COc1cc2ccc(O[C@@H]3C[C@H]4CC[C@@H](C3)N4)cc2oc1=O [IP2015, Exo-7-[(-8-azabicyclo[3.2.1]octan-3-yl)oxy]-3-methoxy-chromen-2-one]
solubility ([1]; 0.1n hcl, pH 1.2 HCl (0.1N)): 17 µg/mL (≈ 0.0564 mM)
Inference (Ph.Eur) ([1]; N,N-dimethyl acetamide): Very slightly soluble
Inference (Ph.Eur) ([1]; N-methyl-2-pyrrolidone): Very slightly soluble
solubility ([1]; aqueous solutions across physiological pH): < 1000 µg/mL
Inference (Ph.Eur) ([1]; dimethyl sulfoxide): Slightly soluble
solubility ([1]; dimethyl sulfoxide): 5000 to 10000 µg/mL (≈ 16.6 to 33.2 mM)
Inference (Ph.Eur) ([1]; ethanol): Very slightly soluble
solubility ([1]; ethanol): < 1000 µg/mL
Inference (Ph.Eur) ([1]; glycerine): Very slightly soluble
solubility ([1]; glycerine): < 1000 µg/mL
solubility ([1]; n,n-dimethyl acetamide): < 1000 µg/mL
solubility ([1]; n-methyl-2-pyrrolidone): < 1000 µg/mL
Inference (Ph.Eur) ([1]; pH 1.2 HCl (0.1N)): Very slightly soluble
Inference (Ph.Eur) ([1]; pH 3.0 Acetate buffer): Slightly soluble
solubility ([1]; pH 3.0 Acetate buffer): 1170 µg/mL (≈ 3.89 mM)
Inference (Ph.Eur) ([1]; pH 3.0 Citrate buffer): Very slightly soluble
solubility ([1]; pH 3.0 Citrate buffer): 839 µg/mL (≈ 2.78 mM)
Inference (Ph.Eur) ([1]; pH 4.0 Citrate buffer): Very slightly soluble
solubility ([1]; pH 4.0 Citrate buffer): 849 µg/mL (≈ 2.82 mM)
Inference (Ph.Eur) ([1]; pH 4.5 Acetate buffer): Very slightly soluble
solubility ([1]; pH 4.5 Acetate buffer): 981 µg/mL (≈ 3.26 mM)
Inference (Ph.Eur) [1, 4]: Very slightly soluble
solubility [1, 4]: 104 µg/mL (≈ 0.345 mM)
Inference (Ph.Eur) [1, 5]: Very slightly soluble
solubility [1, 5]: 146 µg/mL (≈ 0.484 mM)
Inference (Ph.Eur) [1, 6]: Very slightly soluble
solubility [1, 6]: 84 µg/mL (≈ 0.279 mM)
Inference (Ph.Eur) ([1]; polyethylene glycol 400): Very slightly soluble
solubility ([1]; polyethylene glycol 400): < 1000 µg/mL
Inference (Ph.Eur) ([1]; propylene glycol): Slightly soluble
solubility ([1]; propylene glycol): 1000 to 5000 µg/mL (≈ 3.32 to 16.6 mM)
Inference (Ph.Eur) ([1]; purified water): Very slightly soluble
solubility ([1]; purified water): 738 µg/mL (≈ 2.45 mM)
overall response to questions of IIEF-15, p versus baseline ([2]; 5 mg IP2015 oral solution, at follow-up, significant): 0.0046
overall response to questions of IIEF-15, p versus placebo ([2]; 5 mg IP2015 oral solution, at follow-up, tendency): 0.07
Q4 in the IIEF-15, overall score, p compared to placebo ([2]; 5 mg IP2015 oral solution, overall score, no difference): 0.44
overall response to questions of IIEF-15, overall score, p versus baseline ([2]; 5 mg IP2015 oral solution, overall score, significant): 0.0032
overall response to questions of IIEF-15, overall score, p versus placebo ([2]; 5 mg IP2015 oral solution, overall score, tendency): 0.10
Q3 in the IIEF-15, overall score, p versus baseline [2, 7]: 0.07
Q3 in the IIEF-15, overall score, p versus placebo [2, 7]: 0.07
Q4 in the IIEF-15, overall score, p versus baseline [2, 7]: 0.056
Q3 in the IIEF-15, p versus baseline ([2]; 5 mg IP2015 oral solution, week 3, MMRM, significant): 0.046
Q3 in the IIEF-15, p versus placebo ([2]; 5 mg IP2015 oral solution, week 3, change from baseline, MMRM, significant): 0.034
overall IIEF-15 score, score change ([2]; low dose (5 mg) of IP2015, called clinically significant): 2
Any TEAE, figure after the comma ([3]; IP2015 5mg, N=42): 61
Any TEAE, n (%) ([3]; IP2015 5mg, N=42): 32 (76.2 %)
TEAE Dizziness, figure after the comma ([3]; IP2015 5mg, N=42): 3
TEAE Dizziness, n (%) ([3]; IP2015 5mg, N=42): 3 (7.1 %)
TEAE Headache, figure after the comma ([3]; IP2015 5mg, N=42): 15
TEAE Headache, n (%) ([3]; IP2015 5mg, N=42): 11 (26.2 %)
TEAE Mild, figure after the comma ([3]; IP2015 5mg, N=42): 56
TEAE Mild, n (%) ([3]; IP2015 5mg, N=42): 29 (69.0 %)
TEAE Moderate, figure after the comma ([3]; IP2015 5mg, N=42): 5
TEAE Moderate, n (%) ([3]; IP2015 5mg, N=42): 3 (7.1%)
TEAE Nausea, figure after the comma ([3]; IP2015 5mg, N=42): 1
TEAE Nausea, n (%) ([3]; IP2015 5mg, N=42): 1 (2.4 %)
TEAE Related*, figure after the comma ([3]; IP2015 5mg, N=42): 19
TEAE Related*, n (%) ([3]; IP2015 5mg, N=42): 10 (23.8 %)
TEAE Severe ([3]; IP2015 5mg, N=42): 0
Any TEAE, figure after the comma ([3]; IP2015 10 mg, N=43): 141
Any TEAE, n (%) ([3]; IP2015 10 mg, N=43): 34 (79.1 %)
TEAE Dizziness, figure after the comma ([3]; IP2015 10 mg, N=43): 15
TEAE Dizziness, n (%) ([3]; IP2015 10 mg, N=43): 12 (27.9 %)
TEAE Headache, figure after the comma ([3]; IP2015 10 mg, N=43): 27
TEAE Headache, n (%) ([3]; IP2015 10 mg, N=43): 16 (37.2 %)
TEAE Mild, figure after the comma ([3]; IP2015 10 mg, N=43): 132
TEAE Mild, n (%) ([3]; IP2015 10 mg, N=43): 33 (76.7%)
TEAE Moderate, figure after the comma ([3]; IP2015 10 mg, N=43): 9
TEAE Moderate, n (%) ([3]; IP2015 10 mg, N=43): 7 (16.3%)
TEAE Nausea, figure after the comma ([3]; IP2015 10 mg, N=43): 15
TEAE Nausea, n (%) ([3]; IP2015 10 mg, N=43): 8 (18.6 %)
TEAE Related*, figure after the comma ([3]; IP2015 10 mg, N=43): 84
TEAE Related*, n (%) ([3]; IP2015 10 mg, N=43): 23 (53.5 %)
TEAE Severe ([3]; IP2015 10 mg, N=43): 0
severe side effects ([3]; any of the doses (5 mg, 10 mg)): No severe side effects were observed
Treatment-emergent adverse effects ([3]; low-dose (5 mg)): comparable to the placebo group
